The test system of series [1] is MV4-11. The series can be described thus: In vitro antiproliferative assay, MTT, 72 h. It is filed as cell-based, human. The following applies: biphenotypic B cell myelomonocytic leukemia MV4-11, 72 h, n.a. = not active in the range of concentrations used (up to 100 µM), read-out: IC50 [µM] ± SD [n = 5] MV4-11.
Series [2] concerns A549. Description: In vitro antiproliferative assay, SRB, 72 h. It is filed as cell-based, human. Conditions: lung cancer A549, 72 h, n.a. = not active in the range of concentrations used (up to 100 µM), read-out: IC50 [µM] ± SD [n = 5] A549. An excerpt: (§1) The following human cancer cell lines, representing the most common types of cancer, were chosen for evaluation of the antiproliferative activity of the prepared sulfonamides: lung cancer (A549), breast cancer (MCF-7), colon adenocarcinoma (LoVo), and biphenotypic B cell myelomonocytic leukemia (MV4-11). As a reference, the normal mouse fibroblasts cell line (BALB/3T3) was applied. A549, LoVo and BALB/3T3 cell lines were purchased from the ATCC (American Type Culture Collection, Rockville, MD, USA), MCF-7 cell line—from EACC (The European Collection of Cell Cultures), and MV4-11 cell line was obtained from DSMZ (Leibniz Institute—German Collection of Microorganisms and Cell Culture, Braunschweig, Germany). All these lines were maintained at the Hirszfeld Institute of Immunology and Experimental Therapy (IIET) in Wrocław, Poland.
(§2) We used the following culture media: for A549 cell line: the mixture of RPMI 1640 and OptiMEM (1:1) medium (both from Gibco, Scotland, UK)), 2mM L-glutamine, 1mM sodium pyruvate (Sigma-Aldrich Chemie GmbH, Steinheim, Germany) and 5% fetal bovine serum (FBS; HyClone Laboratories, Logan, UT, USA). MCF-7 cells were cultured in Eagle’s medium (IIET, PAS, Wroclaw, Poland), 2mM L-glutamine and 10% of FBS supplemented with 0.8 mg/L of insulin (Sigma-Aldrich Chemie GmbH, Steinheim, Germany). For LoVo cell line, F12K medium was applied (American Type Culture Collection, Rockville, MD, USA-ATCC), with 5% FBS (HyClone Laboratories, Logan, UT, USA). MV4-11 cells were cultured in RPMI 1640/GlutaMax I medium (Gibco, Thermo Fisher Scientific, Leicestershire, UK) with 1 mM sodium pyruvate (Sigma-Aldrich Chemie GmbH, Steinheim, Germany) and 10% FBS (HyClone Laboratories). In case of BALB/3T3 cells, DMEM (Gibco, Thermo Fisher Scientific) supplemented with 2 mM L-glutamine and 5% FBS was used. Antibiotics: 100 U/mL penicillin (Polfa Tarchomin SA, Warsaw, Poland) and 100 µg/mL streptomycin (Sigma-Aldrich Chemie GmbH, Steinheim, Germany) were present in all the culture media; cells were cultured in a humid atmosphere containing 5% CO2 at 37 °C.
(§3) Twenty-four hours before addition of the tested compounds, each cell line was seeded in 96-well plastic plates (Sarstedt, Numbrecht, Germany) in an appropriate medium at 10^4 cells/well density, except MCF7 cell line: 0.75 × 10^4/well, and A549 cell line: 0.25 × 10^4/well. The studied cell lines were subjected to each of the tested sulfonamides at 4 different concentrations in the range of 100–0.1 µg/mL for 72 h. Cisplatin (Teva Pharmaceuticals, Poland) was used as a reference compound, and DMSO (Sigma-Aldrich Chemie GmbH, Steinheim, Germany) served as a solvent control at concentrations equivalent to these applied in the solutions of the tested sulfonamides. MTT assay was performed for leukemic cells, while sulforhodamine B assay (SRB) for the adherent cells.
(§4) After 72 h of incubation, cells were fixed in situ by gently adding of 50 µL per well of ice-cold 50% TCA (trichloroacetic acid, POCh, Gliwice, Poland) and were incubated at 4 °C for one hour. Each well was then washed five times with water, followed by addition of 50 µL of 0.4% solution of SRB (sulforhodamine B, Sigma-Aldrich Chemie GmbH, Steinheim, Germany) in 1% acetic acid (POCh, Gliwice, Poland), and plates were again incubated at RT for 0.5 h. Plates were washed five times with 1% acetic acid to remove the unbound dye. The stained cells were treated with 10 mM TRIS (Tris base, Sigma-Aldrich, Chemie GmbH, Steinheim, Germany). Absorbance at 540 nm in each well was read with Elisa plate reader (BioTek Synergy H4, Swindon, UK) using the Gen5 software.
(§5) The results are shown as average IC50 values (concentration of the compound causing inhibition of cell proliferation by 50%) ± standard deviation. IC50 values were determined using the Prolab-3 system based on Cheburator 0.4, a software developed by Nevozhay. At each concentration, sulfonamides were tested in triplicates in a single experiment. […]

In series [3] the test system is LoVo. Description: In vitro antiproliferative assay, SRB, 72 h. It is filed as cell-based, human. Conditions: colon adenocarcinoma LoVo, n.a. = not active in the range of concentrations used (up to 100 µM), read-out: IC50 [µM] ± SD [n = 5] LoVo.
Excerpt: as §1, §2, §3, §4, §5

The test system of series [4] is MCF-7. The series can be described thus: In vitro antiproliferative assay, SRB, 72 h. Conditions: n.a. = not active in the range of concentrations used (up to 100 µM), read-out: IC50 [µM] ± SD [n = 5] MCF-7. It is filed as cell-based, human.
Excerpt: as §1, §2, §3, §4, §5

Series [5] has as its system BALB/3T3. Description: In vitro antiproliferative assay on normal fibroblasts, SRB, 72 h. It is filed as cell-based, mouse. Conditions: for IC50: normal mouse fibroblasts BALB/3T3, 72 h, SRB, n.a. = not active in the range of concentrations used (up to 100 µM), read-out: IC50 [µM] ± SD [n = 5] Balb/3T3; for selectivity: IC50 value for BALB/3T3 line times bigger than for leukemia cells MV4-11: IC50 BALB/3T3 versus IC50 MV4-11.
Excerpt: as §1, §2, §3, §4, §5

Where [6] appears, read: Homo sapiens, MCF7, breast cancer MCF-7, 72 h.

Read-outs that look alike come from different tables or passages of the source.

As for `CC(c1ccccc1)N1C2CCC(C2)C1CNS(=O)(=O)c1ccc(-c2ccc(F)cc2)cc1` (stereo not shown) [Compound 11i], the IC50 in series [1] (Homo sapiens) came out at 11.2 ± 2.14 µM; in series [2] (Homo sapiens), 2.98 ± 1.38 µM; in series [3] (Homo sapiens), 5.29 ± 2.56 µM; in series [4] (setting [6]) it was 10.3 ± 2.71 µM; in series [5], 13.1 ± 2.68 µM.

`CC(c1ccccc1)N1C2CCC(C2)C1CNS(=O)(=O)c1ccc(C(F)(F)F)cc1` (stereo not shown) [Compound 11e]: the IC50 in series [1] (Homo sapiens) stood at 16.1 ± 4.95 µM; in series [2] (Homo sapiens), 38.4 ± 2.61 µM; in series [3] (Homo sapiens), 33.7 ± 5.13 µM; in series [4] (setting [6]) it was 39.1 ± 7.14 µM; in series [5] it was 37.5 ± 7.8 µM.

A word on the melting point: it is the temperature, or range, at which the solid turns liquid. In the case of `C[C@@H](c1ccccc1)N1C[C@@H](CNS(=O)(=O)c2ccc(-c3ccc(F)cc3)cc2)[C@@H]2CC[C@H]1C2` [Compound 12i, 4’-fluoro-N-(((1S,4S,5R)-2-((S)-1-phenylethyl)-2-azabicyclo[3.2.1]octan-4-yl)methyl)-[1,1’-biphenyl]-4-sulfonamide], the melting point lay in the range of 128 to 129 °C. Also, the IC50 in series [1] (Homo sapiens) came out at 15.1 ± 3.16 µM. Moreover, in series [2] (Homo sapiens), the IC50 stood at 16.4 ± 1.57 µM. The IC50 in series [3] (Homo sapiens) is 15.1 ± 4.94 µM. The IC50 in series [4] (setting [6]) was 12.8 ± 4.03 µM. Further, the IC50 in series [5] is 18.4 ± 8.39 µM.

Take `COc1ccc(-c2ccc(S(=O)(=O)NC3CN(C(C)c4ccccc4)C4CCC3C4)cc2)cc1` (stereo not shown) [Compound 9h]: the IC50 in series [1] (Homo sapiens) stood at 3.92 ± 1.74 µM; in series [2] (Homo sapiens) it was 9.13 ± 1.05 µM; in series [3] (Homo sapiens) it was 11.8 ± 2.46 µM; in series [4] (setting [6]), 16.3 ± 2.11 µM; in series [5] it was 15.1 ± 2.11 µM. Also, in series [5], the “selectivity: IC50 value for BALB/3T3 line times bigger than for leukemia cells MV4-11” value (“selectivity: IC50 value” for short) was approximately 3 times.

In the case of `COc1ccc(-c2ccc(S(=O)(=O)NCC3C4CCC(C4)N3C(C)c3ccccc3)cc2)cc1` (stereo not shown) [Compound 11h], the IC50 amounted to 13.8 ± 2.64 µM in series [1] (Homo sapiens); 12.8 ± 1.38 µM in series [2] (Homo sapiens); 15.8 ± 2.26 µM in series [3] (Homo sapiens); 22.4 ± 4.31 µM in series [4] (setting [6]); 12.4 ± 1.82 µM in series [5].

For `CC(c1ccccc1)N1C2CCC(C2)C1CN(CC1C2CCC(C2)N1C(C)c1ccccc1)S(=O)(=O)c1ccc(-c2ccccc2)cc1` (stereo not shown) [Compound 13f], the IC50 in series [1] (Homo sapiens) turned out to be 56.1 ± 26.9 µM; in series [2] (Homo sapiens), 84.4 ± 26.1 µM; in series [3] (Homo sapiens) it was 44.5 ± 10.9 µM.

`Cc1ccc(-c2ccc(S(=O)(=O)NCC3C4CCC(C4)N3C(C)c3ccccc3)cc2)cc1` (stereo not shown) [Compound 11g]: the IC50 in series [1] (Homo sapiens) was 4.26 ± 3.97 µM; in series [2] (Homo sapiens) it was 14.1 ± 4.77 µM; in series [3] (Homo sapiens), 7.23 ± 16.2 µM; in series [4] (setting [6]), 33 ± 18.9 µM; in series [5], 45.3 ± 17.3 µM. Further, the “selectivity: IC50 value” value in series [5] is recorded as more than 10 times.

With `C[C@@H](c1ccccc1)N1C[C@@H](NS(=O)(=O)c2ccc(-c3ccc(F)cc3)cc2)[C@@H]2CC[C@H]1C2` [Compound 9i, 4’-fluoro-N-((1S,4S,5R)-2-((S)-1-phenylethyl)-2-azabicyclo[3.2.1]octan-4-yl)-[1,1’-biphenyl]-4-sulfonamide], the melting point lay within 139 to 140 °C. Besides, the IC50 in series [1] (Homo sapiens) came out at 12.3 ± 3.25 µM. The IC50 in series [2] (Homo sapiens) was 24.4 ± 0.9 µM. The IC50 in series [3] (Homo sapiens) is 13.3 ± 1.55 µM. Further, in series [4] (setting [6]), the IC50 is 12.7 ± 4.91 µM. For the same compound, in series [5], the IC50 was 14.3 ± 3.18 µM.

As to `C[C@@H](c1ccccc1)N1C(CN(C[C@H]2[C@@H]3CC[C@@H](C3)N2[C@@H](C)c2ccccc2)S(=O)(=O)c2ccc(-c3ccc(F)cc3)cc2)[C@@H]2CC[C@H]1C2` (stereo partly drawn) [Compound 13i, 4’-fluoro-N-(((1S,3R,4R)-2-((S)-1-phenylethyl)-2-azabicyclo[2.2.1]heptan-3-yl)methyl)-N-(((1S,4R)-2-((S)-1-phenylethyl)-2-azabicyclo[2.2.1]heptan-3-yl)methyl)-[1,1’-biphenyl]-4-sulfonamide], the melting point is 96 to 98 °C.

As to `CC(c1ccccc1)N1CC(NS(=O)(=O)c2ccc(-c3ccccc3)cc2)C2CCC1C2` (stereo not shown) [Compound 9f], the IC50 amounted to 8.76 ± 3.45 µM in series [1] (Homo sapiens); 13.6 ± 1.1 µM in series [2] (Homo sapiens); 14.5 ± 2.54 µM in series [3] (Homo sapiens); 18.8 ± 3.25 µM in series [4] (setting [6]); 14.1 ± 2.63 µM in series [5].

On to `CC(c1ccccc1)N1C2CCC(C2)C1CNS(=O)(=O)c1ccc(-c2ccccc2)cc1` (stereo not shown) [Compound 11f], for which the IC50 in series [1] (Homo sapiens) came out at 3.09 ± 1.56 µM; in series [2] (Homo sapiens), 7.66 ± 2.08 µM; in series [3] (Homo sapiens) it was 19.3 ± 6.71 µM; in series [4] (setting [6]), 54 ± 16 µM; in series [5], 38.8 ± 7.88 µM. Also, in series [5], the “selectivity: IC50 value” value is more than 10 times.

`Cc1ccc(S(=O)(=O)NC[C@H]2[C@@H]3CC[C@@H](C3)N2[C@@H](C)c2ccccc2)cc1` [Compound 11c, (1S,3R,4R)-4-methyl-N-((2-((S)-1-phenylethyl)-2-azabicyclo[2.2.1]heptan-3-yl)methyl) benzenesulfonamide] had a melting point of 124 to 127 °C. Besides, in series [1] (Homo sapiens), the IC50 was 29.6 ± 12.9 µM. Further, in series [3] (Homo sapiens), the IC50 is 83.2 ± 11.8 µM.

`C[C@@H](c1ccccc1)N1[C@H]2CC[C@H](C2)[C@@H]1CNS(=O)(=O)c1ccccc1` [Compound 11b, (1S,3R,4R)-N-((2-((S)-1-phenylethyl)-2-azabicyclo[2.2.1]heptan-3-yl)methyl) benzenesulfonamide] yielded a melting point of 107 to 109 °C. In addition, in series [1] (Homo sapiens), the IC50 amounted to 52.7 ± 14 µM.

Regarding `N.N.[Cl][Pt][Cl]` [cisplatin, reference compound], the IC50 in series [1] came out at 1.78 ± 1.22 µM; in series [2] it was 3.02 ± 1.79 µM; in series [3], 11.8 ± 3.87 µM; in series [4] (breast cancer MCF-7, 72 h) it was 10.3 ± 6.23 µM; in series [5], 10.7 ± 3.3 µM.

For the compound `C[C@@H](c1ccccc1)N1[C@H]2CC[C@H](C2)[C@H]1CNS(=O)(=O)c1ccc(F)cc1` [Compound 11d, 4-fluoro-N-(((1S,3S,4R)-2-((S)-1-phenylethyl)-2-azabicyclo[2.2.1]heptan-3-yl)methyl)benzenesulfonamide], the melting point lay in the range of 105 to 107 °C. The IC50 in series [1] (Homo sapiens) was 43.6 ± 14.5 µM. Further, in series [3] (Homo sapiens), the IC50 is 92.2 ± 12.7 µM.

Source of the values: publication PMC7664408, “Biaryl Sulfonamides Based on the 2-Azabicycloalkane Skeleton—Synthesis and Antiproliferative Activity” (Materials, 2020).
